In patent publication US12398087B2, “Methods of making bempedoic acid and compositions of the same” (Esperion Therapeutics, Inc., priority 2019, dated 2025):

What was measured:
[1] = Water sorption by dynamic vapor sorption; format: physicochemical; settings: crystalline form; relative humidity of 80%, temperature of 25° C.
Protocol: The crystalline form of the compound of formula (V) may also be characterized according to its water sorption properties. […] In certain embodiments, the crystalline form of the compound of formula (V) has a water sorption isotherm, when measured at 25° C., substantially the same as shown in FIG. 6.

[2] = Thermogravimetric analysis (TGA); format: physicochemical; settings: crystalline form; heated at 10° C./minute from ~25° C. to about 315° C.
Protocol: Thermogravimetric analysis (TGA) data for the crystalline form of the compound of formula (V) were collected using a TA Discovery 550 TGA instrument. The TGA instrument was calibrated using a nickel reference standard. Samples of the crystalline form of the compound of formula (V) were placed in open platinum sample pans and heated at a rate of 10° C./minute from about ambient temperature (˜ 25° C.) to about 315° C.

CC(C)(CCCCCC(O)CCCCCC(C)(C)C(=O)O)C(=O)O [compound of formula (V), 8-hydroxy-2,2,14,14-tetramethylpentadecanedioic acid]
change in mass, as determined by dynamic vapor sorption [1]: about 0.03%
weight loss in TGA curve [2]: negligible weight loss prior to decomposition occurring
